# Columns and labels:
# TSHR = TSHR (Homo sapiens, UniProt P16473); experiment: inhibition of TSH-mediated cAMP response in HEK-EM 293 cells stably expressing TSHR; assay type: cell-based; design: expressed in transfected cells
# Experimental: (§1) Transiently transfected cells were cultured for 48 hours before the cAMP assay. HEK-EM 293 cells stably expressing TSHR, LHCGR or FSHR were seeded into 24-well plates with a density of 2.2×10^5 cells/well 24 hours before the cAMP assay. After removal of growth medium, cells were incubated for 1 hour in HBSS (Cellgro) with 10 mM HEPES (Cellgro) containing 1 mM 3-isobutyl-1-methylxanthine (IBMX) (Sigma) and the ligand of interest in a humidified 5% CO2 incubator at 37° C. The intracellular cAMP content was determined with the cAMP Biotrak Enzymeimmunoassay (EIA) System (GE Healthcare). Data were analyzed using GraphPad Prism 4 for Windows. Receptor expression was measured as described in Jaschke et al., J Biol Chem 281:9841-9844.
# The TSH-mediated cAMP response of TSHR was inhibited by a maximum of 70.8±5.5% at 30 μM compound 52. […] Compound 52 has no activity at FSHR.
# To exclude the possibility that compound 52 might be acting independently of TSHR by building aggregates with TSH, thereby inhibiting the TSH-induced response, tests were conducted for a possible aggregation between these two ligands. Compound 52 and TSH were preincubated for up to 15 minutes before addition to HEK-EM 293 cells stably expressing TSHR. […] There was no difference in the antagonistic effect whether TSH and compound 52 were preincubated together or not (data not shown) thereby excluding the possibility that its effect was caused by aggregation with TSH.
# TSHR mutant M9 = experiment: cAMP production in HEK-EM 293 cells transiently expressing TSHR mutant M9; assay type: cell-based, human; settings: 30 μM compound
# Experimental: HEK-EM 293 cells were grown in Dulbecco's modified Eagle's Medium (DMEM) supplemented with 10% fetal bovine serum, 100 units/ml penicillin and 10 μg/ml streptomycin (Life Technologies Inc.) at 37° C. in a humidified 5% CO2 incubator. Cells were transiently transfected with wild type TSHR and mutant receptors in 24-well plates (7.5×10^4 cells per well) with 0.4 μg DNA/well using FuGENE™ 6 reagent (Roche) according to the manufacturer's protocol.
# The M9 mutant is described in Jaschke et al., J Biol Chem 281:9841-9844. The Y7.42A mutant was introduced into hTSHR-pcDNA3.1 via the QuickChange XL Site-Directed Mutagenesis kit (Stratagene). The construct was verified by sequencing (MWG Biotech).
# as §1, with “After removal of growth medium, cells were incubated for 1 hour in HBSS (Cellgro) with 10 mM HEPES (Cellgro) containing 1 mM 3-isobutyl-1-methylxanthine (IBMX) (Sigma) and the ligand of interest in a humidified 5% CO2 incubator at 37° C.” left out
# FSHR = target: T1, FSHR (Homo sapiens, UniProt P23945); experiment: intracellular cAMP accumulation in HEK-EM 293 cells stably expressing FSHR; assay type: cell-based
# T1 sequence (P23945 18-695): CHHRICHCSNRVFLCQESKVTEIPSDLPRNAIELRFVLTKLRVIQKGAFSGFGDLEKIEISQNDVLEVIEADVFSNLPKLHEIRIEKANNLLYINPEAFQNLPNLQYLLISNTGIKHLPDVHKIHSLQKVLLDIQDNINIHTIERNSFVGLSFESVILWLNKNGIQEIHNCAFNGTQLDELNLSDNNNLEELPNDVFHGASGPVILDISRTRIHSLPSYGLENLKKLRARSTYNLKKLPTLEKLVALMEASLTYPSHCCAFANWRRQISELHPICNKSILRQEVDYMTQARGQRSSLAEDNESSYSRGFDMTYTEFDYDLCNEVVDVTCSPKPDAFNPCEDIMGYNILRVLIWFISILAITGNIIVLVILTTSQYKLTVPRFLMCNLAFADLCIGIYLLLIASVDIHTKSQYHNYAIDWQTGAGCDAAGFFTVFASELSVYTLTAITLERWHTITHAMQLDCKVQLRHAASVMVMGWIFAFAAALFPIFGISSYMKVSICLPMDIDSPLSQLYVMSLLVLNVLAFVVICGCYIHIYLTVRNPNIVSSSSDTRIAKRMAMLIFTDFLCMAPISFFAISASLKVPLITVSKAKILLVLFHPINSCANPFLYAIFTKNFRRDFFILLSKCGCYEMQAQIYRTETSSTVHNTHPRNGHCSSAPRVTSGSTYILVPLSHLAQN
# Experimental: The expression vectors for human TSHR and LHR are described in Jaschke et al., J Biol Chem 281:9841-9844. The FSHR cDNA in pcDNA3.1 was obtained from the Missouri S&T cDNA Resource Center (www.cDNA.org) and was subcloned into the pcDNA3.1(−)/hygromycin vector. HEK-EM 293 cells were transfected with the cDNA of TSHR, LHCGR or FSHR using FuGENE 6 Transfection reagent (Roche Diagnostics). Hygromycin (250 μg/ml) was used as selection marker.
# as §1
# human TSH receptor = target: T2, human TSH receptor (Homo sapiens, UniProt P16473); experiment: intracellular cAMP accumulation, agonism at TSHR stably expressed in HEK EM 293 cells; assay type: cell-based; settings: cAMP
# T2 construct: expressed in transfected cells
# T2 sequence (P16473 21-764): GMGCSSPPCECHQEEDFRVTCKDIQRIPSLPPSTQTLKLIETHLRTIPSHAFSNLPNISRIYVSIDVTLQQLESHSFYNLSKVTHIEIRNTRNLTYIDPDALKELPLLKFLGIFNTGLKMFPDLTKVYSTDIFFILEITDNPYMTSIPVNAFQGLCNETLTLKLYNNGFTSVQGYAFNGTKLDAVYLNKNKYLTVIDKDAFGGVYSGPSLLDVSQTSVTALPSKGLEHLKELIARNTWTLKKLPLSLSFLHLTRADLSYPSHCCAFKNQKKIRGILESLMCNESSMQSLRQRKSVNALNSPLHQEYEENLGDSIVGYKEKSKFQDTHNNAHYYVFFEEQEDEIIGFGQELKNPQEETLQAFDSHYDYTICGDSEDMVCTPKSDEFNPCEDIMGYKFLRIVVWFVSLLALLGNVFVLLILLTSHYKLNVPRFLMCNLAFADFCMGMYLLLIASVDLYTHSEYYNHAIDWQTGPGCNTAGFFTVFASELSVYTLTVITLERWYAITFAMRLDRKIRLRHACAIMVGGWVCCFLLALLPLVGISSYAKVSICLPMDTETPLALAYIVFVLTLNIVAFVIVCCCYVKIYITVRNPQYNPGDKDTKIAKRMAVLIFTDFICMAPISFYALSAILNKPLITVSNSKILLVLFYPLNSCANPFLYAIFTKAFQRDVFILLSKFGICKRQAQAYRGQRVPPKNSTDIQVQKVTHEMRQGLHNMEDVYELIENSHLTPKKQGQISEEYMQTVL
# Experimental: With reference to Table 1, exemplary disclosed compounds were evaluated against human TSH receptor and human LHCG receptor that were stably expressed in HEK 293 EM cells as previously described by Libert et al. (Biochem. Biophys. Res. Commun. 1989, 165, 1250-1255); and by Schulz et al. (Mol. Endocrinol. 1999, 13, 181-190). Cell surface expression of TSH receptor and LHCG receptor were determined via FACS analysis (Kleinau, G.; Jäschke, H.; Neumann, S.; Lättig, S.; Paschke, R.; Krause, G. J. Biol. Chem. 2004, 279, 51590-51600). Agonism of compounds 3-20 were determined via measurement of intracellular cyclic AMP accumulation. […] For example, […] certain compounds disclosed herein exerted no discernible effect on the FSH receptor.
# Cells were cultured for 48 h in 24-well plates before incubation for 1 h in serum-free DMEM containing 1 mM 3-isobutyl-1-methylxanthine (IBMX) (SIGMA) and bovine TSH (1.8 μM) (SIGMA) or human LH (1000 ng/ml) (Dr. A. Parlow, NIDDK National Hormone and Pituitary Program) or compounds 3-19 (0-100 μM) in a humidified 5% CO2 incubator. Following aspiration of the medium after incubation with compounds, cells were lysed using lysis buffer 1 of the cAMP Biotrak Enzymeimmunoassay (EIA) System (Amersham Biosciences). The cAMP content of the cell lysate was determined using the manufacturer's protocol. The efficacy of receptor activation by small molecule modulators is expressed as % of maximum response of LHCG receptor or TSH receptor to LH or TSH, respectively. The potency (EC50) was obtained from dose response curves (0-100 μM compound) by data analysis with GraphPad Prism 4 for Windows. With reference to FIG. 1, intracellular cAMP production was determined in response to 100 μM of each compound and is expressed as % of maximum response of TSHR/LHCGR to TSH (100 mU/ml)/LH (1000 ng/ml). The data are presented as mean±SEM of two independent experiments, each performed in duplicate.
# as §1
# Chain of TSHR (P16473 21-764): as above
smiles,measurement,setting,value
COC/C=C/c1ccc(-c2nc(SC)nc3sc(C(=O)NC(C)(C)C)c(N)c23)cc1 [Compound 52],antagonistic activity at TSHR in cAMP assay,TSHR,antagonist
same,selectivity toward TSHR compared to LHCGR and FSHR,TSHR,selective toward TSHR
same,antagonistic effect with or without preincubation with TSH (aggregation test),"TSHR; 30 μM compound, 1.8 nM TSH, preincubated up to 15 minutes",no difference
same,inhibition at 30 µM,"TSHR; HEK-EM293, read-out: maximum inhibition of TSH-mediated cAMP response of TSHR",70.8 ± 5.5%
same,IC50,TSHR; with EC50 dose of TSH,4.2 µM
same,"cAMP production, fold over TSHR basal activity, M9",TSHR mutant M9,13.2±1.7 fold
same,activity at FSHR,FSHR,no activity
same,agonist activity at TSHR,human TSH receptor,no agonist activity

# Reference: patent US20090203716A1, “Pyrimidine low molecular weight ligands for modulating hormone receptors” (The Government of the United States of America as …, priority 2006, published 2009)
